Legend:
cAPK Cα = cAPK Cα (Homo sapiens, UniProt P17612); experiment: Competition: displacement of ARC-TAMRA from complex with cAPK Cα, fluorescence anisotropy, LS 55; format: binding; parameters: purchased Biaffin AG
Procedure: A complex was created between 10 nM of ARC-TAMRA and 10 nM of cAPK Cα in 0.500 ml of buffer (50 mM HEPES, 200 mM NaCl, 0.5 g/l BSA, 5 mM DTT, 0.05% TWEEN 20, MilliQ water; pH 7.4). Different compounds were screened for binding to cAPK Cα against fixed concentrations of ARC-TAMRA and cAPK Cα (FIG. 4). 1-3 μl quantities of various dilutions of the solution of the inhibitor were added to 500 μl solution of ARC-TAMRA complex with the kinase and fluorescence anisotropy was measured after each addition of the […] after 10 min delay time.

PKBb = PKBb (Homo sapiens, UniProt P31751); experiment: Kinase selectivity panel, residual activity; format: biochemical; details: 1 μM compound, 50 μM ATP, 30° C.
Procedure: (§1) The assay of protein kinases was performed at 30° C. as described previously [Davies et al., Biochem. J. 351 (2000) 95; Murray et al., Biochem. J. 384 (2004) 477]. The results of the testing are expressed as the % of residual activity of the kinase in the presence of the inhibitor at 1 micromolar concentration.

PRK2 = PRK2 (Homo sapiens, UniProt Q16513); experiment: Kinase selectivity panel, residual activity; format: biochemical
Procedure: as §1

PKBΔph = PKBΔph (Homo sapiens, UniProt P31749); experiment: Kinase selectivity panel, residual activity; format: biochemical; details: 1 μM compound, 5 μM ATP, 30° C.
Procedure: as §1

Chain of PKBΔph (P31749 whole entry, stated change not applied): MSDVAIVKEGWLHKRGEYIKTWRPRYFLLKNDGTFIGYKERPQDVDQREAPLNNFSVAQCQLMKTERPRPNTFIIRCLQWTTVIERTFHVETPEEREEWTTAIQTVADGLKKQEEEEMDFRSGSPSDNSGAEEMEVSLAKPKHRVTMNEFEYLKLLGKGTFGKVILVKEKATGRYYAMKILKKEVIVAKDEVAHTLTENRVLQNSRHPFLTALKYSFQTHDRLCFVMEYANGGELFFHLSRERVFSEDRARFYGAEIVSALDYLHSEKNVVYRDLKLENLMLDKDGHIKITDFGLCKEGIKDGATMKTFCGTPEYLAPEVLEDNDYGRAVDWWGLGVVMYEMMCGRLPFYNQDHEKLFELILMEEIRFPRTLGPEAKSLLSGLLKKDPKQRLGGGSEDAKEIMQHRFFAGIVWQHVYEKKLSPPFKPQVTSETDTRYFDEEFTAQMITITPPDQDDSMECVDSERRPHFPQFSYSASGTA
Chain of PKBb (P31751 whole entry): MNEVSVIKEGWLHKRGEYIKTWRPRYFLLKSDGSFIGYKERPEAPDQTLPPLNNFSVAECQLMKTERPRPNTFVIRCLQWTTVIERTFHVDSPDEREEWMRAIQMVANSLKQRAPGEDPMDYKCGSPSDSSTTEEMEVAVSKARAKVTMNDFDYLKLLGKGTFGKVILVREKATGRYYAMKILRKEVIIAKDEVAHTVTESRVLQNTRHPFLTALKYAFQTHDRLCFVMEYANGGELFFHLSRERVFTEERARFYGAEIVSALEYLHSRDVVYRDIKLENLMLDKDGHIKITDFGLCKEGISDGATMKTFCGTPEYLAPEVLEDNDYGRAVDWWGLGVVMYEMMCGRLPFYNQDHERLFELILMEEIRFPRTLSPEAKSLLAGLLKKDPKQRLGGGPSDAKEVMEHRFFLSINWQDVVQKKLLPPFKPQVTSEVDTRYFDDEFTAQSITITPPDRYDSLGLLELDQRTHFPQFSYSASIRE
Chain of PRK2 (Q16513 whole entry): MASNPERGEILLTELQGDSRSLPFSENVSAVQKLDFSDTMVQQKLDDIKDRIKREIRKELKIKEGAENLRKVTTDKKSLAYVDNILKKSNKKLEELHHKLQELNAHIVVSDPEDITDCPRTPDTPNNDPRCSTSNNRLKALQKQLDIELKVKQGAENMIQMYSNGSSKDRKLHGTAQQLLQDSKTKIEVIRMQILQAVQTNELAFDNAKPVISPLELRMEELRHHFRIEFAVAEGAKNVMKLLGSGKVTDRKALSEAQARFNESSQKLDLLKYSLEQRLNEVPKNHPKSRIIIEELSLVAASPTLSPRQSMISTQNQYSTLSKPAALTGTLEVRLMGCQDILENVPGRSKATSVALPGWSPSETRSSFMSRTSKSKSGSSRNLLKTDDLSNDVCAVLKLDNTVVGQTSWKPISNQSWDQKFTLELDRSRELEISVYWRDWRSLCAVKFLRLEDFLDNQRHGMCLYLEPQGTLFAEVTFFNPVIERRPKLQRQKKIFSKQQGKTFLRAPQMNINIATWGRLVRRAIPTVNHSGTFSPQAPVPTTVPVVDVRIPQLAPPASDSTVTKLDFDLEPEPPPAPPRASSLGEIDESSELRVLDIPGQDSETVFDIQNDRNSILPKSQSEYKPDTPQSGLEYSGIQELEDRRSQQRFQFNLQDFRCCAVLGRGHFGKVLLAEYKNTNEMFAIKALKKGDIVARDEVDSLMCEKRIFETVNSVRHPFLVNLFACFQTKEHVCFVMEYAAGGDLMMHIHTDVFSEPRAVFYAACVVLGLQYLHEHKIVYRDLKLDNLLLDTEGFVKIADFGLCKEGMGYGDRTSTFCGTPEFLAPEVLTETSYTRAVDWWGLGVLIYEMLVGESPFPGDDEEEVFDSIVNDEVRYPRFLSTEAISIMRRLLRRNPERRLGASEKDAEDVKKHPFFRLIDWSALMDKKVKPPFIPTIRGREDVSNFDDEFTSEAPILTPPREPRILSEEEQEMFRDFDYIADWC

N=C(N)NCCC[C@@H](NC(=O)[C@@H](CCCNC(=N)N)NC(=O)[C@@H](CCCNC(=N)N)NC(=O)[C@@H](CCCNC(=N)N)NC(=O)[C@@H](CCCNC(=N)N)NC(=O)[C@@H](CCCNC(=N)N)NC(=O)CCCCCNC(=O)[C@H]1O[C@@H](n2cnc3c(N)ncnc32)[C@H](O)[C@@H]1O)C(N)=O [Compound 5, AdcAhx(D-Arg)6-NH2]
IC50 (cAPK Cα; 10 nM ARC-TAMRA, 10 nM cAPK Cα): 35 nM | Kd (cAPK Cα; cAPK Cα displacement, read-out: Kd of inhibitor (characterized with the probe)): 2.5 nM | Ki (cAPK Cα; read-out: Ki (competitive binding)): 2.5 nM | remaining activity at 1 µM (PKBb): ≤ 3% | remaining activity at 1 µM (PRK2): ≤ 3% | residual activity (PKBΔph): ≤ 3%

From patent US8158376B2, “Bisubstrate fluorescent probe binding to protein kinases” (University of Tartu, priority 2006, dated 2012)
